One compound from article PMC4861903, “Synthesis of a highly water-soluble acacetin prodrug for treating experimental atrial fibrillation in beagle dogs” (Scientific Reports, 2016) can be followed below.

The target of data set [1] is T1, hKv4.3 current (Ito, KCND3) (Homo sapiens, UniProt Q9UK17).
T1 construct: expressed in transfected cells
T1 sequence (Q9UK17 1-655): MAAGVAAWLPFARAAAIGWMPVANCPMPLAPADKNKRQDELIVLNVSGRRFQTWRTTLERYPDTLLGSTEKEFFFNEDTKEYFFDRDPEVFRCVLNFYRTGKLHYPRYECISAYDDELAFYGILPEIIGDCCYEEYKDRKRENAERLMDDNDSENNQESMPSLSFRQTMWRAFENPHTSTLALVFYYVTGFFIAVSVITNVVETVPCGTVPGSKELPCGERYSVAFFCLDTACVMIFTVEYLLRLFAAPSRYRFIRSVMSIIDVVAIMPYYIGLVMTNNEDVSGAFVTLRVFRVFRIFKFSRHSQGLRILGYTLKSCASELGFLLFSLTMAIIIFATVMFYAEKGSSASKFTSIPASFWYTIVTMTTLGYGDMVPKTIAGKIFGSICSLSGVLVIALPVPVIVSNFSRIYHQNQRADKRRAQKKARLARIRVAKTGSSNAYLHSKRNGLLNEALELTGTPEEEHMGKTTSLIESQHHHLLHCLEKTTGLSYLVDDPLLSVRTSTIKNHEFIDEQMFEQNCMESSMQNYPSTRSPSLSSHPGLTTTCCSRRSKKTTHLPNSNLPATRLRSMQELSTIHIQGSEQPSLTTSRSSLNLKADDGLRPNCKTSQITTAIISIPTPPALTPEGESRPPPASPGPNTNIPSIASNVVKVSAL
Description: Whole-cell patch clamp of hKv4.3 current in HEK 293 cells. The format is cell-based. Conditions: 30 μM, at +50 mV, n = 5. On the procedure: Whole-cell currents of hKv1.5 and hKv4.3 were recorded in established HEK 293 cell lines stably expressing hKv1.5 (KCN5A) and hKv4.3 (KCND3) and IKACh was determined in isolated rat atrial myocytes as described previously[12][31][32] and in Supplemental Materials. […]
Effects of acacetin prodrug on cardiac potassium currents
Whole-cell currents of hKv1.5 and hKv4.3 were recorded in established HEK 293 cell lines stably expressing hKv1.5 (KCN5A) and hKv4.3 (KCND3).1, 2 The cells were cultured in Dulbecco’s modified eagle’s medium (DMEM, Invitrogen, Hong Kong) supplemented with 10% fetal bovine serum and 400 µg/mL G418. Cells on a coverslip were transferred to an open cell chamber (0.5 ml) mounted on the stage of an inverted microscope and superfused with Tyrode’s solution at 2 mL/min. The whole cell patch-clamp technique was used as described previously.1, 2 The whole-cell membrane currents were measured using an EPC-10 amplifier and Pulse software (Heka Elektronik, Lambrecht, Germany). Borosilicate glass electrodes (1.2-mm OD) were pulled with a Brown/Flaming puller (model P-97, Sutter Instrument, Nato, CA) and had resistances of 1.5~2.5 MΩ when filled with the pipette solution. A 3-M KCl agar bridge was used as the reference electrode. The tip potential was zeroed before the patch pipette contacted the cell. […]
In general terms: In patch-clamp work, channel activity is measured electrically.

The nature of data set [2]: Aqueous solubility by HPLC in H2O, 5% glucose and 0.9% NaCl. The format is physicochemical. The conditions noted are these: for solubility: 24 °C, room temperature (23–25 °C), n = 3, read-out: maximum solubility.
The nature of data set [3]: Ex vivo bioconversion of acacetin prodrug in rat plasma. The conditions noted are these: 37 °C, n = 3. The format is in vitro ADME. As to the method:
The ex vivo bioconversion of acacetin prodrug was determined in rat plasma or rat hepatic microsome that contains high content alkaline phosphatase, as described previously[30] and in Supplemental Materials. The in vivo bioconversion of acacetin prodrug was determined in beagle dogs as described in Supplemental Materials. […]
Bioconversion of acacetin prodrug in rat plasma and hepatic microsomes
Hydrolysis of acacetin prodrug was initially determined in rat plasma. The 100 µL rat plasma samples containing 5 µg/mL prodrug was prepared at 4 °C and then incubated in a water bath at 37 °C and continuously shaken at 60 rpm. The plasma samples were collected at 0, 5, 15, 30, 60, 120, 180, 240 and 360 min, respectively. The reaction was terminated by adding 1 mL cold methanol containing the IS solution (50 ng/mL pentamethylquercetin). […]
The reaction mixture […]
was prepared in 50 mM Tris-HCl buffer (pH = 7.4) with 1 mM NADPH (nicotinamide adenine dinucleotide phosphate) and 0.5 mg/mL (total protein) microsomes. Prodrug solutions were added to the microsomes reaction mixture with a final concentration of 5 µg/mL. The reaction solution was incubated in a water bath at 37℃ and shaken at 60 rpm for 1 h. The samples were collected at 0, 1, 2, 15, 30 and 60 min. […] After centrifugation at 12000 g for 30 min, the supernatant was immediately analyzed by HPLC. […]

Where two headings read alike, the source gives them in different places.

The term solubility denotes how much of the substance goes into solution per volume.

In the case of `COc1ccc(-c2cc(=O)c3c(O)cc(OP(=O)([O-])[O-])cc3o2)cc1.[Na+].[Na+]` [acacetin prodrug, phosphate sodium salt of acacetin], in data set [1], the “inhibition of hKv4.3 current” value is on record as “no significant inhibition”. In addition, the solubility was found to be 88.6 ± 4.3 mg/mL in data set [2] (saline or isotonic, in 0.9% NaCl); 91.4 ± 2.7 mg/mL in data set [2] (saline or isotonic, in 5% glucose); 126 ± 2.5 mg/mL in data set [2] (water, in H2O). Further, the “solubility higher compared to parent compound acacetin” value in data set [2] (in 5% glucose or 0.9% NaCl) is on record as “more than forty five thousand folds higher”; in data set [2] (in H2O), “more than 1.9 million folds”. For the same compound, the “prodrug converted into acacetin” value in data set [3] (60 min incubation) came out at 50%; in data set [3] (within 240 min incubation) it was 100%.
